Data reported in patent US20100136573A1, “DIAGNOSING NEURODEGENERATIVE DISEASES” (priority 2007, published 2010).
Values belong to the molecule of their own block, whether it stands above or below them. Where a SMILES comes first, the peptide text is derived from it. The star is where a group is joined. Cbz = O=C(OCc1ccccc1)*; OtBu = CC(C)(C)O*; CH2F = FC*

How the values were obtained:
TDP-43 = assay: Proteolytic processing of TDP-43 and caspase-3, Western blot of HeLa and H4 cells; assay type: cell-based
Protocol: For progranulin small interfering RNA (siRNA) transfections, siRNA was predesigned by QIAGEN (QIAGEN Inc, Valencia, Calif.) for GenBank Accession Number NM—001012479, and the sense sequence was 5′-r([sequence])dTdT-3′ (SEQ ID NO:5). siRNA experiments were carried out in 6-well plates. Final siRNA concentration (progranulin or a validated negative control siRNA) per well was 20 nM in Opti-Mem, with 4 μL of siLentFect transfection reagent (Bio-Rad, Hercules, Calif.) used per well. This mixture was incubated in a final volume of 500 μL for 20 minutes and then added to 40%-50% confluent HeLa and H4 cells in 6-well dishes plated the previous day for a final in-well volume of 2 mL. Seventy-two hours after transfection, cells were harvested for subsequent Western blot analysis in lysis buffer containing Co-IP buffer (50 mM Tris-HCl, pH 7.4, 1 M NaCl, 1% Triton-X-100, 5 mM EDTA) plus 1% SDS, PMSF, and both a protease and phosphatase inhibitor mixture. For caspase inhibitor treatment, the cells were transfected with progranulin siRNA for 24 hours, and then the pan-caspase inhibitor (Z-VAD-FMK) (EMD Chemicals, Inc. San Diego, Calif.) was added to cells for additional 48 hours at a final concentration of 100 μM. Cell lysates was prepared as described herein. […]
Protein concentrations of cells lysates were measured by a standard BCA assay (Pierce, Rockford, Ill.). […]

H4 neuroglioma cells = assay: Proteasome-induced toxicity, Western blot; assay type: cell-based
Protocol: H4 neuroglioma cells were grown in Opti-Mem plus 10% FBS and 1% pen-strep. Cells were plated in 6-well plates and at 90% confluency treated with 10 μM proteasome inhibitor I (PSI) (EMD Chemicals, Inc. San Diego, Calif.) or 100 μM pan-caspase inhibitor (Z-VAD-FMK) (EMD Chemicals, Inc. San Diego, Calif.) separately or in combination. Twenty-four hours after treatment, the cells were harvested for subsequent Western blot analysis in the Co-IP buffer (50 mM Tris-HCl, pH 7.4, 1 M NaCl, 1% Triton-X-100, 5 mM EDTA) plus 1% SDS, PMSF, and protease and phosphatase inhibitors.
Protein concentrations of cells lysates were measured by a standard BCA assay (Pierce, Rockford, Ill.). Then, the samples were heated in Laemmli's buffer, and equal amounts of protein were loaded into 10-well 10% or 4-20% Tris-glycine gels (Novex, San Diego, Calif.). After transfer, blots were blocked with 5% nonfat dry milk in TBST ([…]) for 1 hour, and then incubated with rabbit polyclonal TDP-43 antibody (1:500; ProteinTech Group, Inc, Chicago, Ill.), rabbit polyclonal caspase-3 antibody (1:1000; Cell Signaling, Beverly, Mass.), HSP70 (1:2000; Stressgen, Ann Arbor, Mich.), GADPH (1:5000; Biodesign International, Kennebunkport, Me.), or mouse monoclonal β-actin antibody (1:5000, Sigma, Saint Louis, Miss.) overnight at 4° C. Membranes were washed three times each for 10 minutes with TBST and then incubated with anti-mouse or anti-rabbit IgG conjugated to horseradish peroxidase (1:2000; Jackson ImmunoResearch, West Grove, Pa.) for 1 hour. Membranes were then washed three times each for 10 minutes, and protein expression was visualized by ECL treatment and exposure to film.

Flag-TDP-43 = target: T1, Flag-TDP-43 (Homo sapiens, UniProt Q13148); assay: Co-immunoprecipitation with Flag-TDP-43; assay type: binding; details: HeLa cells, probing for GFP
T1 construct: the exon skipping activity in cells overexpressing full-length TDP-43 was examined; expressed in transfected cells; host or cells: HeLa cells
T1 sequence (Q13148 whole entry): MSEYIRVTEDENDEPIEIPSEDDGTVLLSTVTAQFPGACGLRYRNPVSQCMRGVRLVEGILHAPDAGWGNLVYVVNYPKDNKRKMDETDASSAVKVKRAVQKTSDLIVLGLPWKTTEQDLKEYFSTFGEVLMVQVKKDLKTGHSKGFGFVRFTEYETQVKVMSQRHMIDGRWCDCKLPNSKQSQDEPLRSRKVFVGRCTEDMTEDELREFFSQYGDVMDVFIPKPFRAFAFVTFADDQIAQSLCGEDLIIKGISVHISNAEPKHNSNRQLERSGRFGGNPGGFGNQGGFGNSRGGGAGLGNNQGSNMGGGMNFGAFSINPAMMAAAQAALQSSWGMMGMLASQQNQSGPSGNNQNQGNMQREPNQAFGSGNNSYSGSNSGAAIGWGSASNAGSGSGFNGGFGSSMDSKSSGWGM
Protocol: (§1) For co-immunoprecipitation studies, HeLa cells were transfected with 1 or 2 μg of each plasmid. Cells were harvested 48 hours later using Co-IP buffer (50 mM Tris-HCl, pH 7.4, 1 M NaCl, 1% Triton X-100, 5 mM EDTA) containing PMSF as well as protease and phosphatase inhibitors. The lysates were sonicated and centrifuged at 16,000 g for 20 minutes. The protein concentration of supernatants was determined by BCA assay (Thermo Scientific). Supernatant containing 500 μg of total protein was combined with Anti-Flag M2 agarose (Sigma) and incubated overnight at 4° C. with gentle shaking. The agarose was pelleted by centrifugation at 2,500 g for 5 minutes and washed with Co-IP buffer 6 times. Captured protein was eluted from the beads using loading buffer and resolved by SDS-PAGE for Western blot analysis.

HEK293 cells = assay: Inclusion formation and distribution of GFP-TDP-43 constructs, confocal microscopy; assay type: cell-based; details: for cellular distribution: HEK293, confocal fluorescence microscopy
Protocol: HEK293 cells, grown on glass coverslips, were transfected with 0.3 μg of expression vector (GFP, GFP-TDP-43, GFP-TDP-43-caspase-resistant, GFP-TDP-35, GFP-TDP-25, or GFP-TDP-ΔNR1) by using Lipofectamine 2000 (Invitrogen) according to the manufacturer's instructions then subjected to immunofluorescence analysis 48 hours later. To determine if the cytoplasmic inclusion were insoluble, some cells were treated with 0.2% Triton X-100 prior to fixation, in order to remove soluble protein. To determine if the formation of inclusion was aggresome-dependent, some cells were treated with 1 μM nocodazole (Sigma) for 24 hours after 6 hours of transfection. Finally, to examine if inclusions were ubiquitinated, cells were cotransfected with 0.3 μg of a TDP-43 construct and 0.5 μg HA-ubiquitin, then subjected to immunofluorescence analysis 72 hours later.
(§2) The cultured HEK293 and differentiated M17 cells were fixed with 4% paraformaldehyde in phosphate-buffered saline (PBS) at 4° C. for 15 minutes and permeabilized with PBS-0.5% Triton X-100 for 10 minutes. After blocking with 5% BSA for 1 hour at 37° C., the cells were incubated overnight at 4° C. with mouse monoclonal HA antibody (1:1000, Roche Applied Science), rabbit polyclonal activated caspase-3 antibody (1:250, Cell Signaling), rabbit polyclonal anti-pTDP-43 (which detects phosphorylated S409/S410; 1:1000, COSMO BIO CO., LTD), mouse monoclonal Flag antibody (1:1000, Sigma), rabbit polyclonal M2085 (1:1000), or rabbit polyclonal M2079 (1:1000). After washing, cells were incubated with the Alexa 568-conjugated goat anti-mouse IgG secondary antibody (1:1000, Molecular Probes) or anti-rabbit IgG secondary antibody (1:500, Molecular Probes) at 37° C. for 2 hours. Finally, Hoechst 33258 (1 μg/mL, Invitrogen) was used to stain the nuclei. Images were obtained on a Zeiss LSM 510 META confocal microscope.

hnRNPA2 = target: T2, hnRNPA2 (Homo sapiens, UniProt P22626); assay: Co-immunoprecipitation with Flag-tagged hnRNPA2; assay type: binding; details: HeLa cells, probing for GFP
T2 construct: expressed in transfected cells; host or cells: HeLa cells
T2 sequence (P22626 1-341 isoform P22626-2, species assumed): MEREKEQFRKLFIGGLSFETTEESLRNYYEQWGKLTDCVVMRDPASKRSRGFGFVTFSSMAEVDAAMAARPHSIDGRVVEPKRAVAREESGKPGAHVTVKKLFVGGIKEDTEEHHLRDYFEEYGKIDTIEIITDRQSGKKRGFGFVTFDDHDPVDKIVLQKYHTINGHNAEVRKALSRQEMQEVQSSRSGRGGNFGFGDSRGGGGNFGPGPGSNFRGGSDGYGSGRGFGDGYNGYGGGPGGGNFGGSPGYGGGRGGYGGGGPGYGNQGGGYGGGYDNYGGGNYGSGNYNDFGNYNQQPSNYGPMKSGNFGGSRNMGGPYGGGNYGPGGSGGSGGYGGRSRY
Protocol: as §1

[1] = tested on: TDP-43 exon 9 skipping activity; assay: CFTR mini-gene splicing assay; assay type: cell-based; details: for CFTR exon 9 exclusion (endogenous TDP-43 background): HeLa cells cotransfected with CFTR minigene, RT-PCR, compared to GFP; for exon skipping activity in cells overexpressing Flag-TDP-43: cotransfected with CFTR mini-gene and Flag-TDP-43
Protocol: The CFTR mini-gene splicing assay was conducted as described elsewhere (Pagani et al., J. Biol. Chem., 275(28):21041-21047 (2000) and Ayala et al., FEBS Lett., 580(5):1339-1344 (2006)). In brief, Hela cells were co-transfected with 1 μg of minigene construct and 1 μg of GFP-fusion protein expression vector. […] Then, 2 μg of total RNA was used to synthesize cDNA using the SuperScript III First-Strand Synthesis System (Invitrogen). For the PCR, 2 μL of cDNA was used in a 20 μL of reaction according to the manufacturer's protocol for Taq PCR Core Kit (Qiagen). The amplification conditions consisted of an initial denaturation step at 94° C. for 3 minutes, followed by 30 cycles of 94° C. for 30 seconds, 62° C. for 60 seconds, and 72° C. for 90 seconds.

[2] = tested on: differentiated M17 neuroblastoma cells; assay: Toxicity assay (LDH release, activated caspase-3 staining); assay type: cell-based; details: for activated caspase-3 staining: confocal microscopy; for LDH levels compared to cells expressing only GFP: medium collected 72 hours after transfection
Protocol: M17 neuroblastoma cells, seeded at 2.5×10^3 cells per well in 24-well plates, were grown in Neurobasal A/B27 medium containing Glutamax (Invitrogen) and 10 μM retinoic acid (Sigma) to induce differentiation. Seven days later, cells were transfected with 0.2 μg of expression vector for 72 hours. The medium was collected, and a LDH assay (Promega) was used to measure LDH levels as an indicator of toxicity. Then, cells were fixed, and immunofluorescent staining was done using an antibody against activated caspase-3 (1:250; Cell signaling) and the nuclear marker, bisbenzimide (Hoechst 33258).
as §2

HeLa or H4 cells = assay: Immunofluorescence and confocal microscopy of TDP-43 localization; assay type: cell-based; details: 1 μM for 3 hours, in contrast to untreated cells
[3] = co-treated with PSI 10 μM and caspase inhibitor 100 μM, 24 hours

Molecule: COC(=O)C[C@H](NC(=O)[C@H](C)NC(=O)[C@@H](NC(=O)OCc1ccccc1)C(C)C)C(=O)CF [Z-VAD (OMe)-FMK] (Cbz-Val-Ala-Asp(OMe)-CH2F)
- caspase-3 activity (TDP-43; PGRN RNAi-treated HeLa cells plus pan-caspase inhibitor): suppresses
- production of ˜35 and ˜25 kD TDP-43 fragments (TDP-43; PGRN siRNA-treated cells, inhibitor 100 μM for additional 48 hours): inhibited
- HSP70 levels (H4 neuroglioma cells; PSI plus caspase inhibitor): persisted
- PSI-induced caspase-3 activity (H4 neuroglioma cells; [3]): suppressed
- generation of proteolytic TDP-43 fragments (H4 neuroglioma cells; [3]): inhibited

- binding to Flag-TDP-43 (Flag-TDP-43): bound strongly
- binding to hnRNPA2 (hnRNPA2): interact with hnRNPA2
Molecule: GFP-TDP-43: full-length wild-type TDP-43 tagged at the amino terminal with enhanced GFP
- cellular distribution (HEK293 cells): localized almost exclusively to the nucleus
- CFTR exon 9 exclusion (endogenous TDP-43 background) [1]: marked increase in exon exclusion
- exon skipping activity in cells overexpressing Flag-TDP-43 [1]: promoted exon 9 exclusion
- activated caspase-3 staining [2]: did not stain
- LDH levels compared to cells expressing only GFP [2]: comparably increased

- binding to Flag-TDP-43 (Flag-TDP-43): bound strongly
Molecule: GFP-TDP1-257: GFP-tagged C-terminal deletion product of TDP-43

- binding to Flag-TDP-43 (Flag-TDP-43): bound strongly
- binding to hnRNPA2 (hnRNPA2): failed to bind
Molecule: GFP-TDP1-175: GFP-tagged C-terminal deletion mutant lacking the glycine rich region

- binding to Flag-TDP-43 (Flag-TDP-43): only weakly interacted
- binding to hnRNPA2 (hnRNPA2): did indeed interact
Molecule: GFP-TDP76-414: GFP-tagged second C-terminal fragment (76-414) that retains nuclear distribution
- CFTR exon 9 exclusion (endogenous TDP-43 background) [1]: did not promote exon 9 exclusion
- exon skipping activity in cells overexpressing Flag-TDP-43 [1]: markedly reduced

Molecule: CN[C@@H]1C[C@H]2O[C@@](C)([C@@H]1OC)n1c3ccccc3c3c4c(c5c6ccccc6n2c5c31)C(=O)NC4 [staurosporine]
- TDP-43 cellular localization (HeLa or H4 cells): increased cytoplasmic TDP-43 staining

Molecule: COC(=O)Nc1nc2ccc(C(=O)c3cccs3)cc2[nH]1 [nocodazole, reference compound]
- effect on inclusions formed by GFP-TDP-25 and GFP-TDP-35 (HEK293 cells; 1 μM for 24 hours after 6 hours of transfection): not disrupted

Molecule: CC[C@H](C)[C@H](NC(=O)OCc1ccccc1)C(=O)N[C@@H](CCC(=O)OC(C)(C)C)C(=O)N[C@@H](C)C(=O)N[C@H](C=O)CC(C)C [PSI] (Cbz-IE(OtBu)AL-aldehyde)
- HSP70 levels (H4 neuroglioma cells; PSI 10 μM, 24 hours): increased
- cleavage of endogenous cellular TDP-43 (H4 neuroglioma cells; PSI 10 μM, 24 hours): cleaved into ˜35 and ˜25 kD fragments
- cleaved (active) caspase-3 levels (H4 neuroglioma cells; PSI 10 μM, 24 hours): marked increase
- full length TDP-43 band (˜43 kD) (H4 neuroglioma cells; PSI 10 μM, 24 hours): reduction

Molecule: GFP-TDP-43-caspase-resistant: GFP-tagged TDP-43 with aspartic acid at positions 89 and 219 substituted to glutamic acid
- cellular distribution (HEK293 cells): localized almost exclusively to the nucleus
- activated caspase-3 staining [2]: did not stain
- LDH levels compared to cells expressing only GFP [2]: comparably increased
